# Tested on: RA patients
# Experiment: Atherogenic index, Study 1 (RA patients, add-on to MTX)
# Format: in vivo, human
# Protocol: As used herein, the term ‘atherogenic index’ refers to
# Double-blind, placebo-controlled add on study in subjects with moderately to severely active RA who have an inadequate response to methotrexate (MTX) (oral or parenteral).
# Compound 1 (dosed as a [Compound 1:HCl:3H2O]) is dosed for twelve weeks once daily (q.d.) (50 mg, 100 mg or 200 mg) or twice daily (b.i.d.) (25 mg, 50 mg or 100 mg); or placebo.
# At Week 12, the subjects on placebo who have not achieved 20% improvement in swollen joint count (SJC66) and tender joint count (TJC68) are re-randomized automatically to receive Compound 1 (dosed as a [Compound 1:HCl:3H2O]) either at 100 mg q.d. or 50 mg b.i.d. doses in a blinded fashion; subjects on 50 mg q.d. who have not achieved 20% improvement in SJC66 and TJC68 will be assigned to 100 mg q.d. and subjects on 25 mg b.i.d. that have not achieved a 20% improvement in SJC66 and TJC68 will be assigned to 50 mg b.i.d. Subjects who switch treatment at week 12 are handled as if they discontinued at week 12 for the purpose of statistical analysis, whereas subjects in the other groups will maintain their randomized treatment until Week 24.
# The atherogenic index has been identified to be a good predictor of cardiovascular disorders risks and is calculated as follows: […]
# [1] = 25 mg b.i.d continued over 24 weeks, week 1
# [2] = 25 mg b.i.d continued over 24 weeks, week 2
# [3] = 25 mg b.i.d continued over 24 weeks, week 4
# [4] = 25 mg b.i.d continued over 24 weeks, week 8
# [5] = 25 mg b.i.d continued over 24 weeks, week 12
# [6] = 25 mg b.i.d continued over 24 weeks, week 16
# [7] = 25 mg b.i.d continued over 24 weeks, week 20
# [8] = 25 mg b.i.d continued over 24 weeks, week 24
# [9] = 50 mg b.i.d. continued over 24 weeks, week 1
# [10] = 50 mg b.i.d. continued over 24 weeks, week 2
# [11] = 50 mg b.i.d. continued over 24 weeks, week 4
# [12] = 50 mg b.i.d. continued over 24 weeks, week 8
# [13] = 50 mg b.i.d. continued over 24 weeks, week 12
# [14] = 50 mg b.i.d. continued over 24 weeks, week 16
# [15] = 50 mg b.i.d. continued over 24 weeks, week 20
# [16] = 50 mg b.i.d. continued over 24 weeks, week 24
# [17] = 50 mg q.d. continued over 24 weeks, week 1
# [18] = 50 mg q.d. continued over 24 weeks, week 2
# [19] = 50 mg q.d. continued over 24 weeks, week 4
# [20] = 50 mg q.d. continued over 24 weeks, week 8
# [21] = 50 mg q.d. continued over 24 weeks, week 12
# [22] = 50 mg q.d. continued over 24 weeks, week 16
# [23] = 50 mg q.d. continued over 24 weeks, week 20
# [24] = 50 mg q.d. continued over 24 weeks, week 24
smiles,measurement,setting,value
"O=C(Nc1nc2cccc(-c3ccc(CN4CCS(=O)(=O)CC4)cc3)n2n1)C1CC1 [Compound 1, cyclopropanecarboxylic acid {5-[4-(1,1-dioxo-thiomorpholin-4-ylmethyl)-phenyl]-[1,2,4]triazolo[1,5-a]pyridin-2yl}-amide]",Atherogenic index Mean CFB - 24 weeks results,[1],0.08 mmol/L
same,Atherogenic index Mean percentage CFB - 24 weeks results,[1],2.78%
same,Atherogenic index Median CFB - 24 weeks results,[1],0.10 mmol/L
same,Atherogenic index Mean CFB - 24 weeks results,[2],-0.01 mmol/L
same,Atherogenic index Mean percentage CFB - 24 weeks results,[2],0.75%
same,Atherogenic index Median CFB - 24 weeks results,[2],0.00 mmol/L
same,Atherogenic index Mean CFB - 24 weeks results,[3],-0.02 mmol/L
same,Atherogenic index Mean percentage CFB - 24 weeks results,[3],0.43%
same,Atherogenic index Median CFB - 24 weeks results,[3],0.00 mmol/L
same,Atherogenic index Mean CFB - 24 weeks results,[4],-0.05 mmol/L
same,Atherogenic index Mean percentage CFB - 24 weeks results,[4],−0.86%
same,Atherogenic index Median CFB - 24 weeks results,[4],-0.10 mmol/L
same,Atherogenic index Mean CFB - 24 weeks results,[5],0.05 mmol/L
same,Atherogenic index Mean percentage CFB - 24 weeks results,[5],2.68%
same,Atherogenic index Median CFB - 24 weeks results,[5],0.00 mmol/L
same,Atherogenic index Mean CFB - 24 weeks results,[6],-0.03 mmol/L
same,Atherogenic index Mean percentage CFB - 24 weeks results,[6],0.32%
same,Atherogenic index Median CFB - 24 weeks results,[6],0.00 mmol/L
same,Atherogenic index Mean CFB - 24 weeks results,[7],0.09 mmol/L
same,Atherogenic index Mean percentage CFB - 24 weeks results,[7],4.42%
same,Atherogenic index Median CFB - 24 weeks results,[7],0.00 mmol/L
same,Atherogenic index Mean CFB - 24 weeks results,[8],0.02 mmol/L
same,Atherogenic index Mean percentage CFB - 24 weeks results,[8],2.01%
same,Atherogenic index Median CFB - 24 weeks results,[8],0.00 mmol/L
same,Atherogenic index Mean CFB - 24 weeks results,[9],-0.06 mmol/L
same,Atherogenic index Mean percentage CFB - 24 weeks results,[9],−0.30%
same,Atherogenic index Median CFB - 24 weeks results,[9],0.00 mmol/L
same,Atherogenic index Mean CFB - 24 weeks results,[10],-0.21 mmol/L
same,Atherogenic index Mean percentage CFB - 24 weeks results,[10],−4.55%
same,Atherogenic index Median CFB - 24 weeks results,[10],-0.10 mmol/L
same,Atherogenic index Mean CFB - 24 weeks results,[11],-0.14 mmol/L
same,Atherogenic index Mean percentage CFB - 24 weeks results,[11],−2.75%
same,Atherogenic index Median CFB - 24 weeks results,[11],-0.10 mmol/L
same,Atherogenic index Mean CFB - 24 weeks results,[12],-0.18 mmol/L
same,Atherogenic index Mean percentage CFB - 24 weeks results,[12],−3.44%
same,Atherogenic index Median CFB - 24 weeks results,[12],-0.10 mmol/L
same,Atherogenic index Mean CFB - 24 weeks results,[13],-0.07 mmol/L
same,Atherogenic index Mean percentage CFB - 24 weeks results,[13],−0.87%
same,Atherogenic index Median CFB - 24 weeks results,[13],0.00 mmol/L
same,Atherogenic index Mean CFB - 24 weeks results,[14],-0.13 mmol/L
same,Atherogenic index Mean percentage CFB - 24 weeks results,[14],−2.57%
same,Atherogenic index Median CFB - 24 weeks results,[14],-0.10 mmol/L
same,Atherogenic index Mean CFB - 24 weeks results,[15],-0.11 mmol/L
same,Atherogenic index Median CFB - 24 weeks results,[15],-0.10 mmol/L
same,Atherogenic index Mean CFB - 24 weeks results,[16],-0.04 mmol/L
same,Atherogenic index Mean percentage CFB - 24 weeks results,[16],0.23%
same,Atherogenic index Median CFB - 24 weeks results,[16],0.00 mmol/L
same,Atherogenic index Mean CFB - 24 weeks results,[17],-0.02 mmol/L
same,Atherogenic index Mean percentage CFB - 24 weeks results,[17],−0.40%
same,Atherogenic index Median CFB - 24 weeks results,[17],-0.10 mmol/L
same,Atherogenic index Mean CFB - 24 weeks results,[18],-0.15 mmol/L
same,Atherogenic index Mean percentage CFB - 24 weeks results,[18],−3.84%
same,Atherogenic index Median CFB - 24 weeks results,[18],-0.20 mmol/L
same,Atherogenic index Mean CFB - 24 weeks results,[19],-0.11 mmol/L
same,Atherogenic index Mean percentage CFB - 24 weeks results,[19],−2.94%
same,Atherogenic index Median CFB - 24 weeks results,[19],-0.10 mmol/L
same,Atherogenic index Mean CFB - 24 weeks results,[20],0.00 mmol/L
same,Atherogenic index Mean percentage CFB - 24 weeks results,[20],0.36%
same,Atherogenic index Median CFB - 24 weeks results,[20],-0.10 mmol/L
same,Atherogenic index Mean CFB - 24 weeks results,[21],0.01 mmol/L
same,Atherogenic index Mean percentage CFB - 24 weeks results,[21],1.11%
same,Atherogenic index Median CFB - 24 weeks results,[21],0.00 mmol/L
same,Atherogenic index Mean CFB - 24 weeks results,[22],-0.01 mmol/L
same,Atherogenic index Mean percentage CFB - 24 weeks results,[22],0.09%
same,Atherogenic index Median CFB - 24 weeks results,[22],0.00 mmol/L
same,Atherogenic index Mean CFB - 24 weeks results,[23],-0.08 mmol/L
same,Atherogenic index Mean percentage CFB - 24 weeks results,[23],−1.32%
same,Atherogenic index Median CFB - 24 weeks results,[23],-0.10 mmol/L
same,Atherogenic index Mean CFB - 24 weeks results,[24],-0.12 mmol/L
same,Atherogenic index Mean percentage CFB - 24 weeks results,[24],−3.08%
same,Atherogenic index Median CFB - 24 weeks results,[24],-0.10 mmol/L
same,Atherogenic index Mean CFB,"50 mg q.d., week 1",-0.02 mmol/L
same,Atherogenic index Mean percentage CFB - 12 weeks results,"50 mg q.d., week 1",0%
